Assay results reported in ChEMBL document CHEMBL5346934 (J Med Chem, 2023).
Converted amounts (≈) assume the structure as drawn.

Legend:
[1] = system: Vaccinia virus; assay: Antiviral activity against Vaccinia virus GFP infected in green monkey CV-1 cells assessed as reduction in plaque formation measured after 2.5 days by microscopic analysis; assay type: functional, organism-based; conditions: Orthopoxvirus vaccinia, CV-1, 60 h
[2] = system: Vaccinia virus; assay: Antiviral activity against Vaccinia virus GFP infected in green […] cells assessed as reduction in plaque formation measured after 2.5 days by microscopic analysis; assay type: functional, organism-based; conditions: Orthopoxvirus vaccinia, HT-1080, 60 h
[3] = system: Ectromelia virus; assay: Antiviral activity against ectromelia virus K-1 infected in Vero cells measured after 4 days by colorimetric assay; assay type: functional, organism-based; conditions: K-1, Vero, 96 h
[4] = system: Monkeypox virus; assay: Antiviral activity against Monkeypox virus V79-1-005 infected in Vero cells measured after 4 days by colorimetric assay; assay type: functional, organism-based; conditions: V79-1-005, Vero, 96 h
[5] = system: Vaccinia virus; assay: Antiviral activity against Vaccinia virus infected in Vero cells measured after 4 days by colorimetric assay; assay type: functional, organism-based; conditions: Orthopoxvirus vaccinia, 96 h
[6] = system: Vaccinia virus; assay: Antiviral activity against Vaccinia virus infected in human HFF cells; assay type: functional, organism-based; conditions: Orthopoxvirus vaccinia
[7] = system: Human alphaherpesvirus 2; assay: Antiviral activity against Herpes simplex virus 2; assay type: functional, organism-based
[8] = system: Vaccinia virus; assay: Antiviral activity against Vaccinia virus Copenhagen infected in human HFF cells assessed as assessed as reduction in virus-induced cytopathic effect incubated for 7 days by microscopic analysis; assay type: functional, organism-based; conditions: Orthopoxvirus vaccinia, 168 h
[9] = system: Cowpox virus; assay: Antiviral activity against Cowpox virus Brighton infected in human HFF cells assessed as assessed as reduction in virus-induced cytopathic effect incubated for 7 days by microscopic analysis; assay type: functional, organism-based; conditions: 168 h
[10] = system: Monkeypox virus; assay: Antiviral activity against Monkeypox virus Zr-599 infected in African green monkey Vero E6 cells assessed as reduction in plaque formation measured after 72 hrs by microscopic analysis; assay type: functional, organism-based; conditions: Zr-599, Vero C1008, 72 h
[11] = Cytotoxicity against African green monkey VERO cells assessed as inhibition of cell growth incubated for 24 hrs by MTT assay; assay type: toxicity, cell-based; conditions: chlorocebus sabaeus
[12] = system: Variola virus; assay: Antiviral activity against Variola virus 7124 infected in monkey LLC-MK2 cells; assay type: functional, organism-based; conditions: Variola virus, 7124, LLC-MK2
[13] = system: Vaccinia virus; assay: Antiviral activity against Vaccinia virus Copenhagen infected in HFF cells measured after 3 days by colorimetric assay; assay type: functional, organism-based; conditions: Orthopoxvirus vaccinia, 72 h
[14] = system: Vaccinia virus; assay: Antiviral activity against wild type Vaccinia virus infected in African monkey Vero cells measured after 5 days by MTT assay; assay type: functional, organism-based; conditions: Orthopoxvirus vaccinia, 120 h
[15] = system: Cowpox virus; assay: Antiviral activity against Cowpox virus Brighton infected in Vero cells measured after 4 days by colorimetric assay; assay type: functional, organism-based; conditions: 96 h
[16] = system: Vaccinia virus; assay: Antiviral activity against Vaccinia virus Lister infected in human HEL cells assessed as virus-induced cytopathic effect measured after 5 days by microscopic analysis; assay type: functional, organism-based; conditions: Orthopoxvirus vaccinia, 120 h
[17] = system: Camelpox virus; assay: Antiviral activity against Camelpox virus infected in human HEL cells assessed as reduction in virus-induced cytopathic effect measured after 5 days by microscopic analysis; assay type: functional, organism-based; conditions: 120 h
[18] = system: Vaccinia virus; assay: Antiviral activity against Vaccinia virus infected in African green monkey BSC-1 cells incubated for 24 hrs by microscopic analysis; assay type: functional; conditions: Orthopoxvirus vaccinia
[19] = system: Vaccinia virus; assay: Antiviral activity against Vaccinia virus infected in African green monkey Vero cells incubated for 24 hrs; assay type: functional, organism-based; conditions: Orthopoxvirus vaccinia
[20] = system: Variola virus; assay: Antiviral activity against Variola virus 7124 infected in African green monkey BSC-1 cells; assay type: functional, organism-based; conditions: Variola virus, 7124, BSC-1
[21] = system: Vaccinia virus; assay: Antiviral activity against Vaccinia virus infected in monkey BSC40 cells assessed as reduction in virus-induced cytopathic effect; assay type: functional, organism-based; conditions: Orthopoxvirus vaccinia, BSC-40
[22] = system: Vaccinia virus; assay: Antiviral activity against wild type Vaccinia virus infected in human HFF cells assessed as reduction in viral replication measured after 5 days by microscopic analysis; assay type: functional, organism-based; conditions: Orthopoxvirus vaccinia, 120 h
[23] = system: Vaccinia virus; assay: Antiviral activity against Vaccinia virus Copenhagen infected in human HFF cells assessed as reduction in viral replication measured after 3 days; assay type: functional, organism-based; conditions: Orthopoxvirus vaccinia, 72 h
[24] = system: Vaccinia virus; assay: Antiviral activity against Cowpox virus Brighton infected in human HFF cells assessed as reduction in viral replication measured after 3 days; assay type: functional, organism-based; conditions: Orthopoxvirus vaccinia, 72 h
[25] = system: Vaccinia virus; assay: Antiviral activity against Vaccinia virus infected in African green monkey Vero cells assessed as reduction virus induced cytopathic effect incubated for 24 hrs by MTT assay; assay type: functional, organism-based; conditions: Orthopoxvirus vaccinia
[26] = system: Vaccinia virus; assay: Antiviral activity against Vaccinia virus Copenhagen infected in African green monkey Vero cells; assay type: functional, organism-based; conditions: Orthopoxvirus vaccinia
[27] = system: Cowpox virus; assay: Antiviral activity against Cowpox virus Grishak infected in African green monkey Vero cells; assay type: functional, organism-based
[28] = Inhibition of D4 receptor (unknown origin); design: species or system Homo sapiens
[29] = system: Vaccinia virus; assay: Antiviral activity against Vaccinia virus IHD infected in African green monkey Vero cells assessed as reduction in plaque formation measured after 7 days; assay type: functional, organism-based; conditions: Orthopoxvirus vaccinia, 168 h
[30] = system: Vaccinia virus; assay: Antiviral activity against wild type Vaccinia virus IHD infected in monkey Vero cells assessed as reduction in plaque formation measured after 7 days; assay type: functional, organism-based; conditions: Orthopoxvirus vaccinia, 168 h
[31] = system: Vaccinia virus; assay: Antiviral activity against Vaccinia virus infected in African green monkey BSC-1 cells; assay type: functional, organism-based, Orthopoxvirus vaccinia; conditions: Orthopoxvirus vaccinia, BSC-1
[32] = system: Vaccinia virus; assay: Antiviral activity against Vaccinia virus VG9 infected in African green monkey BSC-1 cells; assay type: functional, organism-based, Orthopoxvirus vaccinia; conditions: Orthopoxvirus vaccinia, VG9, BSC-1
[33] = system: Cowpox virus; assay: Antiviral activity against Cowpox virus infected in African green monkey BSC-1 cells; assay type: functional, organism-based
[34] = system: Monkeypox virus; assay: Antiviral activity against Monkeypox virus infected in African green monkey BSC-1 cells; assay type: functional, organism-based
[35] = system: Vaccinia virus; assay: Antiviral activity against Vaccinia virus IHD-J infected in BSC40 cells assessed as reduction in plaque formation measured after 72 hrs by crystal violet staining based analysis; assay type: functional, organism-based; conditions: Orthopoxvirus vaccinia, BSC-40, 72 h
[36] = system: Vaccinia virus; assay: Antiviral activity against Vaccinia virus WR-GFP infected in BSC40 cells assessed as reduction in plaque formation measured after 72 hrs by crystal violet staining based analysis; assay type: functional, organism-based; conditions: Orthopoxvirus vaccinia, BSC-40, 72 h
[37] = system: Vaccinia virus; assay: Antiviral activity against Vaccinia virus infected in human HFF cells assessed as reduction in plaque formation measured after 7 days by colorimetric assay; assay type: functional, organism-based; conditions: Orthopoxvirus vaccinia, 168 h
[38] = system: Vaccinia virus; assay: Antiviral activity against Vaccinia virus infected in human HFF cells measured after 4 days by colorimetric assay; assay type: functional, organism-based; conditions: Orthopoxvirus vaccinia, 96 h
[39] = system: Ectromelia virus; assay: Antiviral activity against ectromelia virus K-1 infected in Vero cells; assay type: functional, organism-based; conditions: K-1, Vero
[40] = system: Vaccinia virus; assay: Antiviral activity against Vaccinia virus infected in African green monkey Vero cells; assay type: functional, organism-based; conditions: Orthopoxvirus vaccinia

O=[N+]([O-])c1cc(/C=N/c2ccccc2/N=C/c2ccc(O)c(O)c2)ccc1O
EC50 [1]: 13.2 µM | EC50 [2]: 10.9 µM

O=C(NNC(=O)C1C2C=CC(C3CC23)C1C(=O)O)c1ccccc1O (configuration not stated)
EC50 [3]: 0.54 µg/mL (≈ 1.58 µM) | EC50 [4]: 0.153 µg/mL (≈ 0.447 µM) | EC50 [5]: 0.032 µg/mL (≈ 0.0935 µM)

Oc1ccc(Cl)cc1Sc1cc(Cl)ccc1O [FENTICLOR]
IC50 [6]: 5.7 µM | IC50 [7]: 2.4 µM

O=S(=O)(c1ccc(C2=CSC(Nc3ccc(F)cc3)N2CCCCCCO)cc1)N1CCCC1 (configuration not stated)
EC50 [8]: 4.6 µM | EC50 [9]: 4.5 µM

OC(c1cc(C(F)(F)F)nc2c(C(F)(F)F)cccc12)C1CCCCN1 (configuration not stated) [MEFLOQUINE]
EC50 [10]: 5190 nM

CC(C)C(=O)OC[C@H]1O[C@@H](n2cc/c(=N\O)[nH]c2=O)[C@H](O)[C@@H]1O [MOLNUPIRAVIR]
EC50 [10]: 1350 nM

NC(CSC1(c2ccc(Cl)cc2)c2ccccc2-c2ccccc21)C(=O)O (configuration not stated)
IC50 [6]: 47.5 µM | IC50 [7]: 34.8 µM

CC1(C)[C@@H]2CC[C@@]1(C)/C(=N/Nc1nc(-c3ccc(Br)cc3)cs1)C2
CC50 at 24 h [11]: 77.1 µM

Nc1nc(=O)n([C@@H]2C=C(CO)[C@@H](O)[C@H]2O)cc1F
EC50 [12]: 510 nM

Cc1cn([C@@]2(C)C[C@H](O)[C@@H](CO)S2)c(=O)[nH]c1=O
EC50 [13]: 480 nM | EC50 [14]: 800 nM | EC50 [15]: 480 nM | EC50 [16]: 410 nM | EC50 [17]: 790 nM

CCCCCCCCNCCC[C@@H](C)[C@H]1CC[C@H]2[C@@H]3[C@H](OCCCN)C[C@@H]4C[C@H](OCCCN)CC[C@]4(C)[C@H]3C[C@H](OCCCN)[C@]12C
EC90 [18]: 9.15 µM

CCNC(=O)OCC12CC3CC(CC(C3)C1)C2
EC50 [19]: 14.8 µM

Nc1ccn([C@@H]2C=C(CO)[C@@H](O)[C@H]2O)c(=O)n1
EC50 [12]: 30 nM

O=c1[nH]c(=O)n([C@H]2C[C@H](O)[C@@H](CO)S2)cc1I
EC50 [13]: 500 nM | EC50 [14]: 50 nM

CCc1ccc(S(=O)(=O)c2ccc(Cl)cc2)cc1
EC50 [19]: 18.6 µM

O[C@H]1[C@H]2c3cc4c(cc3CN3CCC(=C[C@@H]1O)[C@H]23)OCO4 [LYCORINE]
EC50 [20]: 5000 nM

COc1ccc(CCNC(=O)c2cc3ccccc3cc2O)cc1-c1ccc([N+](=O)[O-])cc1
EC50 [21]: 12 µM

CC(=O)Oc1ccccc1C(=O)Nc1ncc([N+](=O)[O-])s1 [NITAZOXANIDE]
EC50 [22]: 1950 nM

NC(=S)N/N=C1\C(=O)Nc2ccccc21
EC50 [23]: 14 µM | EC50 [24]: 60 µM

Cc1cn([C@H]2C[C@H](O)[C@]3(CO)C[C@H]23)c(=O)[nH]c1=O [(NORTH)-METHANOCARBATHYMIDINE]
IC50 [13]: 550 nM | IC50 [15]: 1500 nM

CN1C(=O)/C(=N\NC(N)=S)c2ccccc21 [METHISAZONE]
EC50 [23]: 3.3 µM | EC50 [24]: 14 µM

CCC(C(=O)Nc1sc(C(N)=O)c(C)c1C(=O)OC)c1ccccc1 (configuration not stated)
EC50 [25]: 19.7 µM | EC50 [26]: 18.7 µM | EC50 [27]: 8.4 µM | IC50 [28]: 13.4 µM

C=C(CC)C(=O)c1ccc(OCC(=O)O)c(Cl)c1Cl [ETHACRYNIC ACID]
EC50 [29]: 20 µM | EC50 [30]: 40 µM

O=C1c2c(O)ccc(O)c2C(=O)c2c(NCCNCCO)ccc(NCCNCCO)c21 [MITOXANTRONE]
EC50 [20]: 250 nM | EC50 [31]: 500 nM | EC50 [32]: 700 nM | EC50 [33]: 250 nM | EC50 [34]: 800 nM

CO[C@H]1/C=C/O[C@@]2(C)Oc3c(C)c(O)c4c(O)c(c(/C=N/N5CCN(C)CC5)c(O)c4c3C2=O)NC(=O)/C(C)=C\C=C\[C@H](C)[C@H](O)[C@@H](C)[C@@H](O)[C@@H](C)[C@H](OC(C)=O)[C@@H]1C [RIFAMPIN]
IC50 [6]: ~100 µg/mL

O=C1CN(C(=O)c2nccs2)C(c2cccc(Cl)c2)c2cc(Br)ccc2N1 (configuration not stated)
EC50 [35]: 500 nM | IC50 [36]: 1300 nM

O=C1C(O)=C([C@H]2CC[C@H](c3ccc(Cl)cc3)CC2)C(=O)c2ccccc21 [ATOVAQUONE]
EC50 [10]: 520 nM

CC[C@H](CO)Nc1nc(NCc2ccccc2O)c2ncn(C(C)C)c2n1 [OLOMOUCINE II]
EC50 [37]: 3.8 µM

CCCCCCCCCCCCCCCCOCCCOP(=O)(O)CO[C@H](CO)Cn1ccc(N)nc1=O [BRINCIDOFOVIR]
EC50 [15]: 600 nM

O=C(NNC(=O)C1C2C=CC(C3CC23)C1C(=O)O)c1ccc(C(F)(F)F)cc1 (configuration not stated)
EC50 [3]: 0.011 µg/mL (≈ 0.0279 µM) | EC50 [4]: 0.013 µg/mL (≈ 0.033 µM) | EC50 [5]: 0.001 µg/mL (≈ 0.00254 µM)

NC(=O)c1cn([C@@H]2O[C@H](CO)[C@@H](O)[C@H]2O)c2ncnc(N)c12 [SANGIVAMYCIN]
EC50 [38]: 65 nM

Nc1ncnc2c1ncn2[C@@H]1C=C(CO)[C@@H](O)[C@H]1O [NEOPLANOCIN A]
EC50 [12]: 100 nM

CC1(C)[C@@H]2CC[C@@]1(C)C(NC(=O)c1ccc([N+](=O)[O-])cc1)C2 (some centres not stated)
EC50 [26]: 0.03 µM | EC50 [27]: 1.4 µM | EC50 [39]: 410 nM

CC1(C)[C@@H]2CC[C@@]1(C)[C@H](NC(=O)CCN1CCOCC1)C2
IC50 [40]: 7.47 µM

CC1(C)[C@H]2CC[C@]1(C)[C@H](OC(=O)CCCN1CCOCC1)C2
IC50 [40]: 7.95 µM
